Test results reported in patent US10206944B2, “Chondroitin for use in medicine” (ALTERGON S.A., priority 2012, dated 2019).

Experiments:
[1] = test system: human bladder carcinoma cell line HT-1376; test: Inhibition of growth of bladder cancer cells and polysaccharide-antitumoral synergism; assay type: cell-based; conditions: HT-1376, after 72 h, product taken individually
Protocol: Human bladder cancer cell lines HT-1376 were used as system model, evaluating the ability of different combinations of GEM or MCC and C or CS to inhibit growth.
Human bladder carcinoma cell line HT-1376 (American Type Tissue Cultures Collection, Rockville, Md.) was cultured in DMEM supplemented with heat inactivated 10% foetal bovine serum (FBS), 20 mM 4,2-hydroxyethyl-1-piperazinyl-ethanesulphonic acid (HEPES), 100 U/mL penicillin, 100 µg/mL streptomycin, 1% w/v sodium L-glutamine and 1% w/v pyruvate. The cells were cultured in a humidified atmosphere comprising 95% air/5% CO2 at 37° C. For the study of synergism between C or CS and MMC or GEM in inhibiting the growth of HT-1376, the cells were seeded in 96-well plates at a density of 6*10^3 cells/well. After 24 hours' incubation at 37° C. the cells were treated with different concentrations of C or CS or GEM or MMC, and polysaccharide-antitumoral combinations thereof. The evaluation of polysaccharide-antitumoral synergism was based on analysis after 72 hours' treatment of the fraction curves of the surviving cells versus the concentration of antitumoral, conducted with the Calcusyn computer program (Biosoft, Ferguson, Mo.). The combination index values (CI) of <1, 1 and >1 indicate synergy, additivity and antagonism respectively in the polysaccharide-antitumoral interaction.

[2] = test system: HT-1376 cells; test: Flow cytometry of apoptotic and necrotic cells (Annexin V-FITC/PI); assay type: cell-based, human; design: unit not given here; conditions: 48 h, alone or combined
Protocol: Flow cytometry was used to evaluate the quantity of apoptotic or necrotic cells. Fluorescein isothiocyanate (Annexin V-FITC) combined with propidium iodide (PI) was used as marker; the apoptotic cells were Annexin V-FITC positive and PI negative, and the necrotic cells were Annexin V-FITC positive and PI positive. The cells were labelled by incubating them with Annexin V-FITC (Diagnostics MedSystems) and PI (Sigma) in a binding buffer (10 mM HEPES, pH 7.4, 150 mM NaCl, 5 mM KCl, 1 mM MgCl2, 2.5 mM CaCl2) for 10 min at ambient temperature, and then washing and resuspending the cell material in the same buffer. The apoptotic and necrotic cells were analysed by flow cytometry (FACScan, Becton-Dickinson), acquiring an average of 2×10^4 events per sample, with determinations in triplicate on three separate experiments.

[3] = test system: GRP78; test: Western blotting protein expression of GRP78 in IL-1β-treated human chondrocytes; assay type: cell-based; conditions: densitometric analysis of Western blotting versus tubulin; control = 1
Protocol: (§1) In a standard experiment, 10^4 cells were seeded per well of a 24-well multiwell plate, and after 5 days, when confluency was reached, the cells were starved for 24 hours (incubation in DMEM with 0.5% FBS). The cells were then treated for 2 h with 1% w/v of chondroitin (C) or chondroitin sulphate (CS) (endotoxin content ≤0.1 EU/mg), in DMEM without FBS; the control was maintained under the same conditions, but without the addition of C or CS. IL-1 β at the concentration of 10 ng/mL was then added to the cultures. After 24 h hours' incubation the cells were recovered and the RNA was extracted from them with Trizol Reagent, as described in the kit manual (Life Technologies Ltd, Milan Italy). The gene expression values are confirmed by the protein expression data obtained in Western blotting by densitometric analysis of the GRP78 protein bands and SOD2 compared with the constitutive tubulin gene (Table 6)

[4] = test system: SOD-2; test: Real-Time PCR gene expression of SOD-2 in IL-1β-treated human chondrocytes; assay type: cell-based; conditions: 2 h pre-treatment 1% w/v, IL-1β 10 ng/mL 24 h; untreated cells taken as 1
Excerpt: The objective of the study was to evaluate the effects of chondroitin or chondroitin sulphate on gene expression of GRP78 and SOD-2 in human chondrocytes, after treatment with the pro-inflammatory cytokine IL-1β.
Human chondrocytes extracted from nasal cartilage treated with IL-1β, a pro-inflammatory cytokine which acts as mediator in the activation of the biological mechanisms underlying the onset of OA, were used in the study. In particular, the modulation of two markers involved in the manifestation of the inflammatory state, chaperonin GRP78 and the enzyme superoxide dismutase (SOD-2), was evaluated.
as §1, with “The gene expression values are confirmed by the protein expression data obtained in Western blotting by densitometric analysis of the GRP78 protein bands and SOD2 compared with the constitutive tubulin gene (Table 6)” left out

[5] = test system: SOD-2; test: Western blotting protein expression of SOD-2 in IL-1β-treated human chondrocytes; assay type: cell-based; conditions: densitometric analysis of Western blotting versus tubulin; control = 1
Protocol: as §1

[6] = test system: volunteers suffering from severe impairment of the knee joint; test: Viscosupplementation and cartilage repair in volunteers with knee joint impairment; assay type: in vivo, human
Protocol: The aim of the study was to evaluate the therapeutic potential of the hyaluronic acid-chondroitin combination (HA-C) in joint disease associated with damage to the cartilaginous component of the joint. The study was conducted on 30 volunteers suffering from severe impairment of the knee joint, with damage to the cartilaginous component, evident ongoing inflammatory symptoms, swelling and pain. The volunteers, aged between 25 and 45 years, of both sexes, were randomised into three groups of 10; the control group was treated with saline, the HA group with hyaluronic acid and the HA-C group with a mixture of hyaluronic acid and chondroitin. The viscosupplementation treatment was performed 3 times at 2-month intervals by injecting into the joint 2 mL of a sterile, pyrogen-free solution consisting of a saline solution (0.9% NaCl) for the control group, a 20 mg/mL solution of hyaluronic acid 1,200 KDa for the HA group and a 20 mg/mL solution of hyaluronic acid 1,200 KDa+20 mg/mL of chondroitin for the HA-C group. Before and at the end of the 6-month study the volunteers underwent an X-ray and MRI scan of the joint. Three orthopaedic surgeons independently evaluated the development of the pathological symptoms (pain, inflammatory state and swelling), and repair of cartilage damage, over time (before treatment, and after 3 and 6 months), on a scale of 1 to 5 (where 1 represents absence of healing, and 5 indicates total remission of the pathological symptoms and complete repair of the damage to the cartilage tissue).

[7] = test system: volunteers suffering from dry eye; test: Ophthalmic eyedrops in volunteers suffering from dry eye; assay type: in vivo, human
Protocol: Two ophthalmic preparations were compared: a conventional one based on hyaluronic acid and one based on chondroitin, both at the concentration of 3% w/v in NaCl saline solution at pH 7.4. The eyedrops were prepared in single-dose packaging sterilised in the autoclave. […] The volunteers, of both sexes, aged between 45 and 60 years, were randomised into two groups of 15, and treated with the two types of eyedrops. Under medical control the inflammatory state of the corneal surface was evaluated at the beginning and end of the treatment, and the evaluations of the treated patients relating to tolerability, duration of the wetting effect, and visual alteration after application, were recorded. A scale of 1 to 5 was used for the clinical evaluations and the patients' evaluations, where 5 represents optimum resolution of the pathological condition and its sequelae. […]

[8] = 0.04 μg/mL of C or CS and 0.15 μg/mL of GEM
[9] = 5.7 μg/mL of C or CS and 1.7 μg/mL of MMC

Nc1ccn([C@@H]2O[C@H](CO)[C@@H](O)C2(F)F)c(=O)n1 [GEM, gemcitabine]
IC50 ([1]; Homo sapiens, read-out: IC50 (50% inhibition of growth)): 0.5 µg/mL
Cell state: apoptotic advanced [2, 8]: 2 ± 1
Cell state: apoptotic early [2, 8]: 1 ± 1
Cell state: necrotic [2, 8]: 16 ± 3
Cell state: viable [2, 8]: 81 ± 3

CO[C@@]12[C@H](COC(N)=O)C3=C(C(=O)C(C)=C(N)C3=O)N1C[C@@H]1N[C@@H]12 [MMC, mitomycin-C]
IC50 (50% inhibition of growth) [1]: 18 μ/mL
Cell state: apoptotic advanced [2, 9]: 2 ± 1
Cell state: apoptotic early [2, 9]: 1 ± 1
Cell state: necrotic [2, 9]: 33 ± 1
Cell state: viable [2, 9]: 64 ± 5

IL-1β: pro-inflammatory cytokine, 10 ng/mL, positive control
Protein expression value of GRP78 [3]: 1.15 ± 0.15
gene expression of SOD-2 [4]: 22 ± 4
Protein expression value of SOD-2 [5]: 1.96 ± 0.20

hyaluronic acid [HA, reference compound]
Cartilage repair ([6]; 0 months, scale of 1 to 5): 1.0 ± 0.1
Inflammation ([6]; 0 months, scale of 1 to 5): 1.3 ± 0.2
Swelling ([6]; 0 months, scale of 1 to 5): 1.2 ± 0.1
Pain ([6]; 0 months, scale of 1 to 5, 5 total remission): 1.6 ± 0.2
Cartilage repair ([6]; 3 months, scale of 1 to 5): 1.5 ± 0.2
Inflammation ([6]; 3 months, scale of 1 to 5): 3.1 ± 0.2
Pain ([6]; 3 months, scale of 1 to 5): 3.1 ± 0.4
Swelling ([6]; 3 months, scale of 1 to 5): 3.1 ± 0.3
Inflammation ([6]; 6 months, scale of 1 to 5): 4.1 ± 0.5
Pain ([6]; 6 months, scale of 1 to 5): 4.0 ± 0.3
Doctor: corneal inflammation ([7]; 0 days, 3% w/v eyedrops, scale of 1 to 5, 5 optimum): 1.0 ± 0.1
Patient: absence of visual alteration ([7]; 10 days, scale of 1 to 5): 3.5 ± 0.2
Patient: tolerability ([7]; 10 days, scale of 1 to 5): 3.8 ± 0.2
Patient: wetting effect ([7]; 10 days, scale of 1 to 5): 4.0 ± 0.2
Patient: absence of visual alteration ([7]; 20 days, scale of 1 to 5): 3.2 ± 0.1
Patient: tolerability ([7]; 20 days, scale of 1 to 5): 3.7 ± 0.3
Patient: wetting effect ([7]; 20 days, scale of 1 to 5): 4.1 ± 0.3
Doctor: corneal inflammation ([7]; 30 days, 3% w/v eyedrops 4 times a day, scale of 1 to 5): 3.5 ± 0.2
Patient: absence of visual alteration ([7]; 30 days, scale of 1 to 5): 3.6 ± 0.2
Patient: tolerability ([7]; 30 days, scale of 1 to 5): 3.9 ± 0.3
Patient: wetting effect ([7]; 30 days, scale of 1 to 5): 4.4 ± 0.3
